Reference: a melting point compilation (Tetko et al.; mined from patent text by program, amines drawn as free bases though some values may be those of a salt)

| SMILES | melting point |
| --- | --- |
| CCCC(=O)c1cccc(NC(=O)C=C(C)Cl)c1 | 106 °C |
| O=C(CN1C(=O)C(NC(=O)c2cc3ccccc3[nH]2)C(c2ccccc2)Sc2ccccc21)NCCc1ccccc1 (stereo not drawn) | 157 to 163 °C |
| CC=C(C)C1CCC2C3CC(=O)C4=CC(=O)CCC4(C)C3CCC12C (stereo not drawn) | 172 to 178 °C |
| CC(C)N(C[C@H](O)[C@H](Cc1ccccc1)NC(=O)OCc1ccccc1)NC(=O)C(C)(C)C | 132 to 134 °C |
| CC1(C(=O)Nc2ccc(-n3nc(C(F)(F)F)cc3C(F)(F)F)cc2)CC1 | 109 to 110 °C |
| Cc1cn(C(C)C(=O)c2ccc(Cl)cc2)c(=O)n1-c1ccc(N2CCN(c3ccc(O)cc3)CC2)cc1 (stereo not drawn) | 230 °C |
| CCOC(=O)C1(C(=O)OCC)Oc2c(ccc(OC)c2Cl)C1O (stereo not drawn) | 116 to 117 °C |
| CS(=O)(=O)OCC(O)(CC(Cl)(Cl)Cl)c1ccccc1 (stereo not drawn) | 128 to 130 °C |
| CC(O)(C(=O)Nc1ccc(S(=O)(=O)N2CCCCC2)cc1)C(F)(F)F (stereo not drawn) | 164 to 166 °C |
| COc1cc(OCc2ccncc2)ccc1/C=C/c1cc(/C=C/c2cc3ccccc3[nH]2)n[nH]1 | 124 to 134 °C |
| COc1ccc(-c2nc(N)c(C(N)=O)nc2-c2ccc(=O)n(C(C)C)c2)cc1 | 244 °C |
| COc1cc(OCCCN(C)C)ccc1C(=O)NN | 47 to 52 °C |
| N#Cc1cc2ccccc2n1-c1ccc(CO)cc1 | > 270 °C |
| Nc1nc2c(ncn2COCCCP(=O)(O)O)c(=O)[nH]1 | 202 °C |
| COc1cc2c3ccc(OC)c(OC)c3n(C(=O)c3ccccc3)c2cc1OC | 184 to 185 °C |
| CCOc1nc(O)cc(O)n1 | > 250 °C |
| CC1CC(=Cc2ccccc2O)C(=O)O1 (stereo not drawn) | 112 to 114 °C |
| CC(C)C1C(=O)N(Cc2ccccc2)S(=O)(=O)N1C (stereo not drawn) | 52.5 to 54 °C |
| Cc1nc2ncnn2c(Cl)c1CCCl | 81 to 82 °C |
| CSc1nn(-c2c(Cl)cc(Cl)cc2Cl)c(N(C)C)c1CC1C(=O)NC(=O)c2ccccc21 (stereo not drawn) | 186 to 187 °C |
| Cc1c(C)n(Cc2ccccc2)c(=O)[nH]c1=O | 187 to 189 °C |
| CSC(=NCc1ccc(CCO)cc1)NC#N | 164 to 165 °C |
| CCc1nc2c(N)nc3ccccc3c2n1CCCCNS(C)(=O)=O | 198 to 200 °C |
| O=S(=O)(Cl)c1nc2nc(OCC(F)(F)F)ccn2n1 | 91 to 96 °C |
| C#CC1(Oc2ccccc2[N+](=O)[O-])CCN(C(C)=O)CC1 | 112 to 115 °C |

| SMILES | melting point |
| --- | --- |
| O=S(=O)(c1ccc(F)cc1)N1CCCC1c1ccc(F)cc1 (racemic) | 121 °C |
| COC(=O)CCCc1cc2nc(Cl)ccc2n1S(=O)(=O)c1cc(F)cc(F)c1 | 90 °C |
| CN(C)C=NC(=O)c1ccc(C(=O)N2Cc3cccn3Cc3ccccc32)cc1 | 232 to 234 °C |
| O=c1cc(-c2ccncc2)nc2n1CCCN2CCCc1c[nH]c2ccccc12 | 230 to 232 °C |
| FC(F)(F)c1cc(C(F)(F)F)n(-c2ccc(NCc3ccncc3)cc2)n1 | 92 to 94 °C |
| CCCCCCCC(=O)c1ccc(CCC(C)(COC(C)=O)NC(C)=O)cc1 (stereo not drawn) | 88 to 89 °C |
| CC(C)(c1ccc(Oc2ccc(N)cc2)cc1)c1cccc(C(C)(C)c2ccc(Oc3ccc(N)cc3)cc2)c1 | 180 °C |
| CCCCCCCCCCOc1cc(O)cc(C(=O)OC)c1 | 92 to 94 °C |
| C=Cc1ccc(C=O)cc1 | 65.9 °C |
| CCCCc1nc(N)c(N=Nc2ccccc2)c(=O)[nH]1 | 266 to 270 °C |
| O=C(O)C1=CC=CC(C(=O)c2ccc(O)c(O)c2)(C(=O)c2ccc(O)c(O)c2)C1 | 254 to 256 °C |
| CCCc1ccnc(C(N)=O)c1C(N)=O | 178 to 179 °C |
| CC(C)(C)OC(=O)N1CCC(NC(=O)c2ccc(-n3cc4ccccc4n3)cc2)CC1 | 202 to 204 °C |
| COc1cc(Cc2cnc(N)nc2N)cc(C#Cc2ccc3ccccc3c2)c1OC | 152 to 155 °C |
| O=C1COc2cc(CN3CCN(c4ccccc4)CC3)ccc2N1 | 191 to 193 °C |
| COc1ccc(S(=O)(=O)N2CCc3cccc(-c4ccc(C(=O)O)cc4)c32)cc1 | 130 to 132 °C |
| CCCCN(CCCC)CCCCCCOc1ccc([C@H]2c3ccc(OCc4ccccc4)cc3OC[C@H]2c2ccccc2)cc1 (racemic) | 72 to 73.5 °C |
| CN1CCC(=C2c3ccccc3CCn3cc(-c4ccccc4)nc32)CC1 | 172 °C |
| CS(=O)(=O)c1ccc(C(=O)O)c(Cl)c1F | 204 °C |
| CCOC(=O)C1=C(COCC#N)NC(C)=C(C(=O)OC)C1c1ccccc1Cl (stereo not drawn) | 128 to 130 °C |
| NC(=O)c1cc(-c2ccc(Cl)cc2)on1 | 224 to 225 °C |
| O=C(c1cnccn1)N1CCCC(c2ccccc2)=N1 | 98 to 100 °C |
| ClCc1coc(-c2cc3ccccc3s2)n1 | 150 to 151 °C |
| CCS(=O)(=O)c1ccc(S(=O)(=O)CC)nc1 | 148 to 150 °C |
| CCOC(=O)Cc1ccc(-c2nc(COc3ccc(COc4nn(-c5ccccc5)cc4/C=C/c4nc(CC)sc4C)cc3OC)c(C)o2)cc1 | 127 to 128 °C |

| SMILES | melting point |
| --- | --- |
| CC12CCC(=O)C=C1CCC1C2CCC2(C)C(OC(=O)CBr)CCC12 (stereo not drawn) | 144 to 145 °C |
| COC(=O)CCNC(=O)COc1ccc2c(c1)CC(NS(=O)(=O)c1ccc(Cl)cc1)C2 (stereo not drawn) | 126 to 128 °C |
| CC(C)(C)c1ccc(OCC(O)CN2CCC3(CC2)CSC2=C(O3)c3cc(-c4ccccc4)ccc3C(=O)C2=O)cc1 (stereo not drawn) | 94 to 97 °C |
| CCN1C(=O)C(=C(C)O)SC1=S | 93 °C |
| CCCCc1nc(C(O)(CC)CC)c(C(=O)O)n1Cc1ccc(-c2ccccc2-c2nnn[nH]2)cc1 | 181 to 183 °C |
| Cc1ccc(S(=O)(=O)N2[C@H](CCCCc3nnnn3C)CC[C@@H]2c2ccc(F)cc2)cc1 (racemic) | 77 °C |
| O=[N+]([O-])c1cc(-c2cn3c(n2)sc2ccccc23)cc(O)c1O | 303 to 305 °C |
| NS(=O)(=O)c1ccc(-n2cc(-c3ccccc3)cc2-c2ccc(F)cc2)cc1 | 192 to 194 °C |
| COCCN1CCc2cc(Nc3ncc(Cl)c(NC4(C(=O)NCC#N)CC4)n3)c(OC)cc2CC1 | 187 to 189 °C |
| CC[C@H](Cc1sccc1Cl)Nc1ccnc(O)c1[N+](=O)[O-] | 150 to 152 °C |
| FC(F)(F)c1cccc(-c2ccnc3c(Br)cnn23)c1 | 138 to 140 °C |
| CCc1cn(C2OC(CNC(=O)C(C)Oc3c(Cl)cc(Cl)c(OC)c3Cl)C(O)C2F)c(=O)[nH]c1=O (stereo not drawn) | 210 to 211 °C |
| O=C(Nc1ccc(Br)cc1)N1CCN2CCC1CC2 | 228 to 231 °C |
| Cc1cc(-n2ccnc2)c2cccc(OCc3c(Cl)ccc(S(=O)(=O)N4CCC[C@H]4C(=O)NC4CC4)c3Cl)c2n1 | 108 °C |
| c1n[nH]nc1C12CCCN(CC1)C2 (stereo not drawn) | 70 to 75 °C |
| COc1ccc(CCNc2c(C)c(C)c3c(c2C)C(c2ccc(C(C)C)cc2)C(C)(C)O3)cc1 (stereo not drawn) | 63 to 65 °C |
| COC(=O)c1ccc(Br)c(O)c1 | 130 to 132 °C |
| Cc1ccc(Cc2nc3cc(-c4ccc(-c5ccccc5)cc4)c(Cl)cc3[nH]2)cc1P(=O)(O)O | > 220 °C |
| COC(=O)c1cc(C)cc(Br)c1NS(=O)(=O)c1ccc(OC)cc1 | 113 °C |
| CCOC(=O)c1cn2c(n1)CN(C(=O)CCl)c1ccccc1-2 | 178 to 183 °C |
| CCCCOc1ccc(Cl)cc1C(=O)NCc1ccc(CC(=O)O)cc1 | 172 °C |
| CN1CCN(c2cc3nc(C(C)(C)C)sc3cc2NC(=S)N2CCCCC2)CC1 | 202 to 206 °C |
| CCC(CCCc1cc(OC)c(OC)c(OC)c1)(c1cccs1)N(C)C (stereo not drawn) | 62 to 63 °C |
| Nc1cnc2cccnc2c1O | 315 to 320 °C |
| COc1cc(I)c(C(=O)Oc2ccccc2COC(=O)c2ccc3c(c2I)OCO3)cc1OC | 128 to 130 °C |

| SMILES | melting point |
| --- | --- |
| C[C@H](NC(=O)OCc1ccccc1)C(=O)N1CCC[C@H]1C(=O)NC1CCCC1 | 118 to 119 °C |
| N#CN(CCN1CCC(C(=O)c2ccc(F)cc2)CC1)C(=N)NCCN1CCC(C(=O)c2ccc(F)cc2)CC1 | 152 to 156 °C |
| O=C1c2ccccc2-c2c1c(Cl)nc1cc(OCc3ccccc3)ccc21 | 212 to 214 °C |
| COc1ccc(C(=O)CN2CCN(C(c3ccccc3)c3ccccc3)CC2)c(OC)c1OC | 119 °C |
| COc1ccc(C2(O)C(=O)Nc3ccc(Cl)cc32)cc1 (stereo not drawn) | 202 °C |
| Cc1cc(C)c(S(=O)(=O)NCC2CCN(S(=O)(=O)c3c(C)cc(C)cc3C)CC2)c(C)c1 | 202 to 204 °C |
| COc1ccc(S(=O)(=O)NCCc2ccc(C(C)=O)cc2)cc1 | 122 to 123 °C |
| CC1(C)CCCC(C)(C)N1Oc1ccc(C(F)(F)F)cc1[N+](=O)[O-] | 54 to 55 °C |
| O=C(C=Cc1ccncc1)c1ccco1 | 122 to 124 °C |
| COc1cc(Nc2c(C#N)cnc3cc(-c4ccc(C(N)=O)cc4)sc23)c(Cl)cc1Cl | > 300 °C |
| OC/C=C/c1ccc(Cc2cccnc2)cc1 | 81 to 82 °C |
| COc1ccc(C(=O)Nc2ccc(COc3ccc4c(c3)CCC(CN(C)C)C4)cc2)cc1 (stereo not drawn) | 155 to 159 °C |
| CCOC(=O)C(=CNC1CC1)C(=O)c1cc(F)c(Cl)nc1Cl | 129 to 130 °C |
| CC(=O)NCC1CN(c2ccc(N3CCC(O)(C(F)(F)F)C(C)C3)c(F)c2)C(=O)O1 (stereo not drawn) | 144 to 146 °C |
| Fc1cccc(CSc2nnc(-c3ncnc4[nH]ccc34)o2)c1 | 182 to 183 °C |
| NC(=O)[C@@H]1[C@H](Nc2c(Br)cnc3[nH]c(-c4cccnc4N4CCCC4)nc23)[C@H]2C=C[C@@H]1C2 | 190 °C |
| CO[C@]1(c2cccc(OCc3ccc4c(ccc(=O)n4C)c3)c2)CCOC[C@H]1O (racemic) | 62 to 66 °C |
| CCOC(=O)c1cnc(Nc2ccc(OCC)cc2)[nH]c1=O | 263 to 265 °C |
| N=C(Nc1ccc(CN(Cc2ccccc2)Cc2ccccc2)cc1)c1cccs1 | 127 to 128 °C |
| CC1(C)CCC(C)(C)c2cc(S(=O)Cc3ccc(C(=O)O)cc3)ccc21 (stereo not drawn) | 198 to 200 °C |
| CCN(CC)C(=O)Oc1cc(-c2ccccc2)nc2ccc([N+](=O)[O-])cc12 | 40 °C |
| CCc1cc(C(=O)c2ccccc2Cl)c(NC)s1 | 100 to 102 °C |
| CC(C)c1cc(CC#N)c(C(C)C)cc1C#N | 88 to 89 °C |
